According to patent publication US20170007561A1, “CONTEMPORANEOUS, HETEROGENEOUSLY-ORIENTED, MULTI-TARGETED THERAPEUTIC MODIFICATION AND/OR MODULATION OF DISEASE BY ADMINISTRATION OF SULFUR-CONTAINING, AMINO ACID-SPECIFIC SMALL MOLECULES” (BioNumerik Pharmaceuticals, Inc., priority 2014, published 2017):
“Also recorded” adds a separate entry of the source.

Legend:
Aminopeptidase N = Aminopeptidase N (Homo sapiens, UniProt P15144); experiment: Aminopeptidase N activity (summary Table 27); assay type: biochemical
Sequence of Aminopeptidase N (P15144 whole entry): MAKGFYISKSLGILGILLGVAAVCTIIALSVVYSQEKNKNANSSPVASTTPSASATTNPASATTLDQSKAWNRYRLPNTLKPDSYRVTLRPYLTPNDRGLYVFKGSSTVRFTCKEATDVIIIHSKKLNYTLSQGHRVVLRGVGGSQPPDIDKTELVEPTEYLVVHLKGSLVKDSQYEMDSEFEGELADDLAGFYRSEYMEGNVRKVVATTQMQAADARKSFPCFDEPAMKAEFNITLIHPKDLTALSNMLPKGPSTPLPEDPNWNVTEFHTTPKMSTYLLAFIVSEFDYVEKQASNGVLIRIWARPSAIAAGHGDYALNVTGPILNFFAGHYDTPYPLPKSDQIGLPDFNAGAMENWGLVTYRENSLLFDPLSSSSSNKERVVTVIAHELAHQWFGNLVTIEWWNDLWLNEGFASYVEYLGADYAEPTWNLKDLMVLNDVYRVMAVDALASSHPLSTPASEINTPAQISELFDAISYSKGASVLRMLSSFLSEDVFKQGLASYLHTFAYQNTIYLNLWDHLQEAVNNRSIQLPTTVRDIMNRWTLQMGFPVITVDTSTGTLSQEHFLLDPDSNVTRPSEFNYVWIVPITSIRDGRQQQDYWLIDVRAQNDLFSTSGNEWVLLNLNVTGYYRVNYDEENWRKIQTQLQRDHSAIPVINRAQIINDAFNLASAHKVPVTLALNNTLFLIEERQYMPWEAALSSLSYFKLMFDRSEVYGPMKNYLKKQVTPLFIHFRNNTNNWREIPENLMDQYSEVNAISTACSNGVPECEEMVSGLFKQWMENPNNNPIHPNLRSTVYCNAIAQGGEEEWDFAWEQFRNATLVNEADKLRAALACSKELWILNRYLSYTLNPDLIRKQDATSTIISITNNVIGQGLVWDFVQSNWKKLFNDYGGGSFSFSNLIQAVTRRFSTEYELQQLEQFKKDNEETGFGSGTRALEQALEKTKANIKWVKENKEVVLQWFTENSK

[1] = molecular target: T1, recombinant human farnesyltransferase (Homo sapiens, UniProt P49354+P49356); experiment: Farnesyltransferase Dansyl-GCVLS fluorescence assay; assay type: biochemical
T1 construct: purchased Abcam
T1 sequence (P49356 whole entry, one chain of several): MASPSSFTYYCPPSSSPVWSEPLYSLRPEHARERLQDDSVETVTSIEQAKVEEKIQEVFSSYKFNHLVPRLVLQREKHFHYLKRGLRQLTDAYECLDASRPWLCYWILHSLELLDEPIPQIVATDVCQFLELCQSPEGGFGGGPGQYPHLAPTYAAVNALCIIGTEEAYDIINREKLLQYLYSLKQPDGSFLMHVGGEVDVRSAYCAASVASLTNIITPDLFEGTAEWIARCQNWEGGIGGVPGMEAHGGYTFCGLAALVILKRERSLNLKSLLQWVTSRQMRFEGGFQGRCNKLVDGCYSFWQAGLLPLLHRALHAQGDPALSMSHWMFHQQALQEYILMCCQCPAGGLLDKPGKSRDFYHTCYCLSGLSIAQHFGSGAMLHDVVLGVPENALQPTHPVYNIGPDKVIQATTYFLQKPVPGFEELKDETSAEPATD
Description: Tavocept-inhibited human farnesyltransferase-mediated transfer of farnesylpyrophosphate to the cysteine residue in a danyslated peptide substrate of sequence glycine-cysteine-valine-leucine-serine (designated—Dansyl-GCVLS) in vitro. See, FIG. 79. The assay reactions contained 25 nM recombinant human farnesyltransferase (Abcam), 10 μM farnesylpyrophosphate (SigmaAldrich), 3 μM Dansyl-GCVLS (NeoBioScience) in Tris buffer (50 mM, pH 7.5) containing 5 mM MgCl2, 10 μM ZnCl2, and 0.2% octyl-β-D-glucopyranoside. Total assay volumes were 50 μL and the reactions were initiated by the addition of FTase (5 μL of 250 nM stock was added to 45 μL of assay components listed above). The excitation wavelength was 340 nm (a 340 nm filter with 25 nm bandpass) and the emission wavelength was […] (505 nm filter with 20 nm bandpass) and the assay temperature was 25° C. Progress curves of the transfer of the farnesylpyrophosphate to the Dansyl-GCVLS substrate are shown in FIG. 79, Panel A and relative rates of the progress curve were determined and are shown in FIG. 79, Panel B.

[2] = tested on: human breast, ovarian and lymphoma cancer cell lines; experiment: Paclitaxel induced apoptosis (PARP cleavage, Bcl-2 phosphorylation, DNA laddering); assay type: cell-based
From the text: (§1) Tavocept mediates the non-enzymatic xenobiotic modification of sulfur-containing amino acid residues (e.g., cysteine) on proteins. As an engineered, non-naturally occurring agent (i.e., xenobiotic), Tavocept is autocatalytic and requires no protein cofactor to cause the xenobiotic modification of cysteine, but appears to be specific for cysteine residues located within a particular structural context (i.e., not all cysteines in a protein are so modified). Tavocept-mediated, xenobiotic modification represents a novel mechanism of action for a cancer treating agent and can be compared to a degree with post-translational modifications of cysteine residues in proteins (see, Table 3, below).

Recombinant human ERCC1 = molecular target: T2, Recombinant human ERCC1 (Homo sapiens, UniProt P07992); experiment: LC-MS of trypsin-digested ERCC1 after incubation with Tavocept; assay type: binding; conditions: 20 mM Tavocept, LC-MS of tryptic fragments
T2 construct: 6xHis (N); purchased Creative BioMart; host or cells: E. coli
T2 sequence (P07992 whole entry, the tested form may be a part): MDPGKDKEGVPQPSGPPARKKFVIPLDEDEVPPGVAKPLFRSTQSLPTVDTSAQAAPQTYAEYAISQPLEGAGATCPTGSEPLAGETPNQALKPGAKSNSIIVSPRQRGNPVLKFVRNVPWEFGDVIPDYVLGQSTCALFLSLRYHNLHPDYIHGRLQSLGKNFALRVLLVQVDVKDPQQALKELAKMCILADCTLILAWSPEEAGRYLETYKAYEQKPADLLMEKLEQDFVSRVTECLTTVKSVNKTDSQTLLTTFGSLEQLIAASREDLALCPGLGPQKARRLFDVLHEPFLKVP
Description: Recombinant human ERCC1 (1 mg; 27.8 nanomoles, Creative BioMart) was reduced using a vast excess of dithiothreitol (DTT, 100 μl of a 500 mM stock) in ammonium bicarbonate (40 mM, pH 8.0) at 37° C. for 75 minutes (total reaction volume was 900 μL). […] Each 800 μl reaction was then chromatographed over a NAP10 column. This step removed unreacted Tavocept and was used for the buffer control simply to ensure that both samples received the same handling/manipulation during the course of the experiment. The elution volume from each NAP10 column was 1.2 mL. […] Trypsin digestion reactions were incubated for 1 hour at 30° C. and then for 17 hours at room temperature (23° C.). Following the Trypsin digest, the samples were lyophilized to dryness overnight and then resuspended in a volume of approximately 100 μL water and analyzed using LC-MS. A Symmetry C18 HPLC column (Waters, Franklin, Mass.; 3.5 μm; 4.6 mm×75 mm) and a Waters Alliance liquid chromatography system (Waters 2695, Franklin, Mass., USA) coupled to a Micromass single quadropole mass detector (Micromass ZMD, Manchester, UK) were used to analyze fragments from trypsin-digested human ERCC1. The mobile phase contained 0.1% of formic acid throughout the run and the flow rate was 0.35 mL/min. […]

FTase = molecular target: T3, FTase (Homo sapiens, UniProt P49354+P49356); experiment: FTase-mediated farnesylation of Dansyl-GCVLS peptide; assay type: biochemical
T3 construct: purchased Abcam
T3 sequence (P49356 whole entry, one chain of several): as the sequence (P49356 whole entry, one chain of several) above
From the text: Panel A: Progress curve showing FTase-mediated farnesylation of Dansyl-GCVLS peptide. Panel B: Relative rates from reactions shown in Panel A.

[3] = molecular target: T4, Mesenchymal Epithelial Transition (MET) Factor Kinase (Homo sapiens, UniProt P08581); experiment: MET kinase activity (summary Table 27); assay type: biochemical
T4 construct: the kinase domain of MET (residues 956-end) was used in these experiments; GST (N); purchased SignalChem M52-18G-10; host or cells: Sf9
T4 sequence (P08581 956-1390 limits assumed): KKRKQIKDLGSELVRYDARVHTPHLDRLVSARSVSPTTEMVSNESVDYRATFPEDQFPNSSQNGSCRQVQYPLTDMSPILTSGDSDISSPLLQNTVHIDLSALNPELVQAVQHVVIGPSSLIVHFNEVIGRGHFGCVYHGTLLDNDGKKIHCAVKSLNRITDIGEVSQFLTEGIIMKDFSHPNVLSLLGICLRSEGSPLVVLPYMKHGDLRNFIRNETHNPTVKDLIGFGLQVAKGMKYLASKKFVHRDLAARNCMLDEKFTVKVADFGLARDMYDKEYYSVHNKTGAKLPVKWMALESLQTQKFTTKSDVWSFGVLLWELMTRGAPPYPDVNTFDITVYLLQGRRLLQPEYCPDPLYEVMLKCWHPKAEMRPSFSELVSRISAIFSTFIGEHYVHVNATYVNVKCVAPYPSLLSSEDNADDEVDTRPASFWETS

human cancer cell lines = experiment: Paclitaxel- and platinum-induced cytotoxicity; assay type: cell-based
From the text: as §1

[4] = molecular target: T5, human glutaredoxin (Grx1) (Homo sapiens, UniProt P35754); experiment: X-ray crystallography of Tavocept-derived mesna adduct on Grx; assay type: binding; conditions: Tavocept 40 mM, 4° C. overnight
T5 construct: 6xHis (TEV-cleavable) (N, cleaved yes); made in house; host or cells: E. coli BL21 (RIPL)
T5 sequence (P35754 whole entry): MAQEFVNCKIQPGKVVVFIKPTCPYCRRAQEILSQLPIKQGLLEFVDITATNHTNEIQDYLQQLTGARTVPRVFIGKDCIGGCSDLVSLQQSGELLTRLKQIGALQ
From the text: Diffraction data were collected at the Advanced Light Source (ALS) (Berkeley, Calif.). […] Data was processed using the program package MosFlm as part of the ccp4 program package.
Data was indexed, integrated, scaled and merged using the program Mosflm. […] The solution was consistent with one molecule in the crystal asymmetric unit. […] The structure solution is supported by contiguous electron density for the entire chain trace of each molecule, landmark side chain density features matching the amino acid sequence including cysteines, absence of phi-psi violations and final R/Rfree values in the normal range. […] Residues Gln39 and Glu55 have missing side-chain atoms in the final structures (side chain atoms CD, CG, OE1, NE2 and CD, OE1, OE2, respectively).

With `O=S(=O)([O-])CCSSCCS(=O)(=O)[O-].[Na+].[Na+]` [Tavocept, disodium 2,2′-dithio-bis-ethane sulfonate] the “Cellular consequence of BNP7787-modification and/or modulation: aminopeptidase N” value (Aminopeptidase N) was “can inhibit γ-glutamyltranspeptidase and aminopeptidase N enzyme”, the Inhibition of farnesylation [1] was “inhibits farnesylation in a concentration-dependent manner” and the “interference with paclitaxel induced apoptosis” value [2] was “does not interfere”. For the same molecule, the “ERCC1 cysteine residue carrying Tavocept-derived mesna adduct” value (Recombinant human ERCC1) was “Cys238; also recorded: Cys274”, the “effect on FTase activity” value (FTase) was “Inhibition of FTase activity” and the “Cellular consequence of BNP7787-modification and/or modulation: MET” value [3] was “Modification of non-active site cysteine(s) resulting in enzyme”. For the same molecule, the “interference with paclitaxel- and platinum-induced cytotoxicity” value (human cancer cell lines) was “not to interfere” and the “Mesna adduct sites on Grx by X-ray” value [4] was “Cys7 and Cys82”.
